The source made the active and inactive calls. No cut-off for these calls is given here.
Key:
HCT-116 [1] = experiment: Cytotoxicity against human HCT-116 cells assessed as inhibition of cell proliferation at 0.1 to 10 uM incubated for 24 hrs by MTT assay; type: functional, cell-based; settings: dose 0.1-10 µM
N2a [2] = experiment: Cytotoxicity against mouse Neuro2a cells assessed as inhibition of cell proliferation at 0.1 to 10 uM incubated for 24 hrs by MTT assay; type: functional, cell-based; settings: dose 0.1-10 µM
HepG2 [3] = experiment: Cytotoxicity against human HepG2 cells assessed as inhibition of cell proliferation AT 0.1 to 10 uM incubated for 24 hrs by MTT assay; type: functional, cell-based; settings: dose 0.1-10 µM
HCT-116 [4] = experiment: Cytotoxicity against human HCT-116 cells assessed as inhibition of cell proliferation incubated for 24 hrs by MTT assay; type: functional, cell-based; settings: HCT-116, 24 h
N2a [5] = experiment: Cytotoxicity against mouse Neuro2a cells assessed as inhibition of cell proliferation incubated for 24 hrs by MTT assay; type: functional, cell-based
HCT-116 [6] = experiment: Induction of apoptosis in human HCT-116 cells assessed as viable cells at 0.1 uM incubated for 24 hrs by Annexin V-FITC/PI staining based flow cytometric analysis (reference value: 90.50 %); type: functional; settings: read-out: Activity
HCT-116 [7] = experiment: Induction of apoptosis in human HCT-116 cells assessed as early apoptotic cells at 0.1 uM incubated for 24 hrs by Annexin V-FITC/PI staining based flow cytometric analysis (reference value: 1.90 %); type: functional
HCT-116 [8] = experiment: Induction of apoptosis in human HCT-116 cells assessed as late apoptotic cells at 0.1 uM incubated for 24 hrs by Annexin V-FITC/PI staining based flow cytometric analysis (reference value: 6.15 %); type: functional
HCT-116 [9] = experiment: Induction of apoptosis in human HCT-116 cells assessed as necrotic cells at 0.1 uM incubated for 24 hrs by Annexin V-FITC/PI staining based flow cytometric analysis (reference value: 1.45 %); type: functional
HCT-116 [10] = experiment: Induction of apoptosis in human HCT-116 cells assessed as viable cells at 1 uM incubated for 24 hrs by Annexin V-FITC/PI staining based flow cytometric analysis (reference value: 90.50 %); type: functional; settings: read-out: Activity
HCT-116 [11] = experiment: Induction of apoptosis in human HCT-116 cells assessed as early apoptotic cells at 1 uM incubated for 24 hrs by Annexin V-FITC/PI staining based flow cytometric analysis (reference value: 1.90 %); type: functional
HCT-116 [12] = experiment: Induction of apoptosis in human HCT-116 cells assessed as late apoptotic cells at 1 uM incubated for 24 hrs by Annexin V-FITC/PI staining based flow cytometric analysis (reference value: 6.15 %); type: functional
HCT-116 [13] = experiment: Induction of apoptosis in human HCT-116 cells assessed as necrotic cells at 1 uM incubated for 24 hrs by Annexin V-FITC/PI staining based flow cytometric analysis (reference value: 1.45 %); type: functional
N2a [14] = experiment: Induction of apoptosis in mouse Neuro2a cells assessed as viable cells at 0.1 uM incubated for 24 hrs by Annexin V-FITC/PI staining based analysis (reference value: 91.70 %); type: functional; settings: read-out: Activity
N2a [15] = experiment: Induction of apoptosis in mouse Neuro2a cells assessed as early apoptotic cells at 0.1 uM incubated for 24 hrs by Annexin V-FITC/PI staining based analysis (reference value: 3.17 %); type: functional
N2a [16] = experiment: Induction of apoptosis in mouse Neuro2a cells assessed as late apoptotic cells at 0.1 uM incubated for 24 hrs by Annexin V-FITC/PI staining based analysis (reference value: 0.81 %); type: functional
N2a [17] = experiment: Induction of apoptosis in mouse Neuro2a cells assessed as necrotic cells at 0.1 uM incubated for 24 hrs by Annexin V-FITC/PI staining based analysis (reference value: 4.33 %); type: functional
N2a [18] = experiment: Induction of apoptosis in mouse Neuro2a cells assessed as viable cells at 1 uM incubated for 24 hrs by Annexin V-FITC/PI staining based analysis (reference value: 91.70 %); type: functional; settings: read-out: Activity
N2a [19] = experiment: Induction of apoptosis in mouse Neuro2a cells assessed as early apoptotic cells at 1 uM incubated for 24 hrs by Annexin V-FITC/PI staining based analysis (reference value: 3.17 %); type: functional
N2a [20] = experiment: Induction of apoptosis in mouse Neuro2a cells assessed as late apoptotic cells at 1 uM incubated for 24 hrs by Annexin V-FITC/PI staining based analysis (reference value: 0.81 %); type: functional
N2a [21] = experiment: Induction of apoptosis in mouse Neuro2a cells assessed as necrotic cells at 1 uM incubated for 24 hrs by Annexin V-FITC/PI staining based analysis (reference value: 4.33 %); type: functional
HepG2 [22] = experiment: Induction of apoptosis in human HepG2 cells assessed as viable cells at 0.1 uM incubated for 24 hrs by Annexin V-FITC/PI staining based flow cytometric analysis (reference value: 90.08 %); type: functional; settings: read-out: Activity
HepG2 [23] = experiment: Induction of apoptosis in human HepG2 cells assessed as early apoptotic cells at 0.1 uM incubated for 24 hrs by Annexin V-FITC/PI staining based flow cytometric analysis (reference value: 4.85 %); type: functional
HepG2 [24] = experiment: Induction of apoptosis in human HepG2 cells assessed as late apoptotic cells at 0.1 uM incubated for 24 hrs by Annexin V-FITC/PI staining based flow cytometric analysis (reference value: 2.05 %); type: functional
HepG2 [25] = experiment: Induction of apoptosis in human HepG2 cells assessed as necrotic cells at 0.1 uM incubated for 24 hrs by Annexin V-FITC/PI staining based flow cytometric analysis (reference value: 3.02 %); type: functional
HepG2 [26] = experiment: Induction of apoptosis in human HepG2 cells assessed as viable cells at 1 uM incubated for 24 hrs by Annexin V-FITC/PI staining based flow cytometric analysis (reference value: 90.08 %); type: functional; settings: read-out: Activity
HepG2 [27] = experiment: Induction of apoptosis in human HepG2 cells assessed as early apoptotic cells at 1 uM incubated for 24 hrs by Annexin V-FITC/PI staining based flow cytometric analysis (reference value: 4.85 %); type: functional
HepG2 [28] = experiment: Induction of apoptosis in human HepG2 cells assessed as late apoptotic cells at 1 uM incubated for 24 hrs by Annexin V-FITC/PI staining based flow cytometric analysis (reference value: 2.05 %); type: functional
HepG2 [29] = experiment: Induction of apoptosis in human HepG2 cells assessed as necrotic cells at 1 uM incubated for 24 hrs by Annexin V-FITC/PI staining based flow cytometric analysis (reference value: 3.02 %); type: functional
HCT-116 [30] = experiment: Induction of apoptosis in human HCT-116 cells assessed as fold increase in early apoptotic cells at 1 uM incubated for 24 hrs by Annexin V-FITC/PI staining based analysis; type: functional
N2a [31] = experiment: Induction of apoptosis in mouse Neuro2a cells assessed as fold increase in early apoptotic cells at 1 uM incubated for 24 hrs by Annexin V-FITC/PI staining based analysis; type: functional
HepG2 [32] = experiment: Induction of apoptosis in human HepG2 cells assessed as fold increase in early apoptotic cells at 1 uM incubated for 24 hrs by Annexin V-FITC/PI staining based flow cytometric analysis; type: functional
HCT-116 [33] = experiment: Induction of apoptosis in human HCT-116 cells assessed as fold increase in late apoptotic cells at 1 uM incubated for 24 hrs by Annexin V-FITC/PI staining based analysis; type: functional
N2a [34] = experiment: Induction of apoptosis in mouse Neuro2a cells assessed as fold increase in late apoptotic cells at 1 uM incubated for 24 hrs by Annexin V-FITC/PI staining based analysis; type: functional
HepG2 [35] = experiment: Induction of apoptosis in human HepG2 cells assessed as fold increase in late apoptotic cells at 1 uM incubated for 24 hrs by Annexin V-FITC/PI staining based flow cytometric analysis; type: functional
HCT-116 [36] = experiment: Induction of cell cycle arrest in human HCT-116 cells assessed as accumulation of cells at G0/G1 phase at 0.1 uM incubated for 24 hrs by flow cytometric analysis (reference value: 90.2 %); type: functional
HCT-116 [37] = experiment: Induction of cell cycle arrest in human HCT-116 cells assessed as accumulation of cells at S phase at 0.1 uM incubated for 24 hrs by flow cytometric analysis (reference value: 19.2 %); type: functional
HCT-116 [38] = experiment: Induction of cell cycle arrest in human HCT-116 cells assessed as accumulation of cells at G2/M phase at 0.1 uM incubated for 24 hrs by flow cytometric analysis (reference value: 30.6 %); type: functional
HCT-116 [39] = experiment: Induction of cell cycle arrest in human HCT-116 cells assessed as accumulation of cells at G0/G1 phase at 1 uM incubated for 24 hrs by flow cytometric analysis (reference value: 90.2 %); type: functional
HCT-116 [40] = experiment: Induction of cell cycle arrest in human HCT-116 cells assessed as accumulation of cells at S phase at 1 uM incubated for 24 hrs by flow cytometric analysis (reference value: 19.2 %); type: functional
HCT-116 [41] = experiment: Induction of cell cycle arrest in human HCT-116 cells assessed as accumulation of cells at G2/M phase at 1 uM incubated for 24 hrs by flow cytometric analysis (reference value: 30.6 %); type: functional
N2a [42] = experiment: Induction of cell cycle arrest in mouse Neuro2a cells assessed as accumulation of cells at G0/G1 phase at 0.1 uM incubated for 24 hrs by flow cytometric analysis (reference value: 61.5 %); type: functional
N2a [43] = experiment: Induction of cell cycle arrest in mouse Neuro2a cells assessed as accumulation of cells at S phase at 0.1 uM incubated for 24 hrs by flow cytometric analysis (reference value: 30.5 %); type: functional
N2a [44] = experiment: Induction of cell cycle arrest in mouse Neuro2a cells assessed as accumulation of cells at G2/M phase at 0.1 uM incubated for 24 hrs by flow cytometric analysis (reference value: 8.0 %); type: functional
N2a [45] = experiment: Induction of cell cycle arrest in mouse Neuro2a cells assessed as accumulation of cells at G0/G1 phase at 1 uM incubated for 24 hrs by flow cytometric analysis (reference value: 61.5 %); type: functional
N2a [46] = experiment: Induction of cell cycle arrest in mouse Neuro2a cells assessed as accumulation of cells at S phase at 1 uM incubated for 24 hrs by flow cytometric analysis (reference value: 30.5 %); type: functional
N2a [47] = experiment: Induction of cell cycle arrest in mouse Neuro2a cells assessed as accumulation of cells at G2/M phase at 1 uM incubated for 24 hrs by flow cytometric analysis (reference value: 8.0 %); type: functional
HepG2 [48] = experiment: Induction of cell cycle arrest in human HepG2 cells assessed as accumulation of cells at G2/M phase at 0.1 uM incubated for 24 hrs by flow cytometric analysis (reference value: 6.7 %); type: functional
HepG2 [49] = experiment: Induction of cell cycle arrest in human HepG2 cells assessed as accumulation of cells at G0/G1 phase at 0.1 uM incubated for 24 hrs by flow cytometric analysis (reference value: 66.4 %); type: functional
HepG2 [50] = experiment: Induction of cell cycle arrest in human HepG2 cells assessed as accumulation of cells at S phase at 0.1 uM incubated for 24 hrs by flow cytometric analysis (reference value: 27.8 %); type: functional
HepG2 [51] = experiment: Induction of cell cycle arrest in human HepG2 cells assessed as accumulation of cells at G0/G1 phase at 1 uM incubated for 24 hrs by flow cytometric analysis (reference value: 66.4 %); type: functional
HepG2 [52] = experiment: Induction of cell cycle arrest in human HepG2 cells assessed as accumulation of cells at S phase at 1 uM incubated for 24 hrs by flow cytometric analysis (reference value: 27.8 %); type: functional
HepG2 [53] = experiment: Induction of cell cycle arrest in human HepG2 cells assessed as accumulation of cells at G2/M phase at 1 uM incubated for 24 hrs by flow cytometric analysis (reference value: 27.8 %); type: functional

## CC(=O)CCCCC[C@@H](O)[C@H](C)C[C@H](C)CC[C@@H]1O[C@H]1C[C@@H]1CC[C@@H](/C=C/C=C/C[C@H](O)C[C@H]2C=C[C@@H](C=C(C)C)O2)O1
HCT-116 [1]
  Activity: Active
N2a [2]
  Activity: Active
HepG2 [3]
  Activity: Active
HCT-116 [4]
  IC50: 4.4 µM
N2a [5]
  IC50: 2.8 µM
HCT-116 [6]
  viability at 0.1 µM: 75.2%
HCT-116 [7]
  Activity: 4.9%
HCT-116 [8]
  Activity: 14.55%
HCT-116 [9]
  Activity: 5.4%
HCT-116 [10]
  viability at 1 µM: 58.5%
HCT-116 [11]
  Activity: 5.15%
HCT-116 [12]
  Activity: 17.52%
HCT-116 [13]
  Activity: 18.45%
N2a [14]
  viability at 0.1 µM: 76%
N2a [15]
  Activity: 15.67%
N2a [16]
  Activity: 7.2%
N2a [17]
  Activity: 1.16%
N2a [18]
  viability at 1 µM: 55.1%
N2a [19]
  Activity: 17.3%
N2a [20]
  Activity: 24.75%
N2a [21]
  Activity: 2.85%
HepG2 [22]
  viability at 0.1 µM: 52.2%
HepG2 [23]
  Activity: 30.92%
HepG2 [24]
  Activity: 15.02%
HepG2 [25]
  Activity: 1.88%
HepG2 [26]
  viability at 1 µM: 49.8%
HepG2 [27]
  Activity: 27.87%
HepG2 [28]
  Activity: 20.59%
HepG2 [29]
  Activity: 1.72%
HCT-116 [30]
  fold change (FC): 2.7
N2a [31]
  fold change (FC): 5.5
HepG2 [32]
  fold change (FC): 5.8
HCT-116 [33]
  fold change (FC): 2.9
N2a [34]
  fold change (FC): 30.7
HepG2 [35]
  fold change (FC): 10
HCT-116 [36]
  Activity: 48.4%
HCT-116 [37]
  Activity: 18.7%
HCT-116 [38]
  Activity: 31.9%
HCT-116 [39]
  Activity: 6.8%
HCT-116 [40]
  Activity: 26%
HCT-116 [41]
  Activity: 27.1%
N2a [42]
  Activity: 51.5%
N2a [43]
  Activity: 38.1%
N2a [44]
  Activity: 10.4%
N2a [45]
  Activity: 43.2%
N2a [46]
  Activity: 43.1%
N2a [47]
  Activity: 13.7%
HepG2 [48]
  Activity: 10.5%
HepG2 [49]
  Activity: 54.5%
HepG2 [50]
  Activity: 36%
HepG2 [51]
  Activity: 52.3%
HepG2 [52]
  Activity: 34.7%
HepG2 [53]
  Activity: 13%

From ChEMBL document CHEMBL6127104, “Prorocentin-5: A Cytotoxic Polyketide from the Benthic Marine Dinoflagellate Prorocentrum lima” (J Nat Prod, 2024)
